Values of other authors, collected in patent US20250376472A1, “3-(PHENYLSULFONYL)-[1,2,3]TRIAZOLO[1,5A]QUINAZOLIN-5(4H)-ONE DERIVATIVES” (priority 2022, published 2025).

Assays:
AgrA = target: T1, AgrA (Staphylococcus aureus, UniProt P0A0I7); conditions: all four agr groups; cited from earlier work
T1 construct: endogenous in cells; host or cells: S. aureus USA300 strain UAMS-1625 carrying a P3-lacZ reporter plasmid

red blood cell (RBC) = conditions: cited from earlier work
S. aureus [1] = conditions: after multiple passages with Savirin; cited from earlier work
S. aureus [2] = conditions: cited from earlier work
MRSA USA300 type strain = conditions: mice infected with MRSA USA300 type strain, applied multiple times; cited from earlier work

T1 sequence (P0A0I7 whole entry): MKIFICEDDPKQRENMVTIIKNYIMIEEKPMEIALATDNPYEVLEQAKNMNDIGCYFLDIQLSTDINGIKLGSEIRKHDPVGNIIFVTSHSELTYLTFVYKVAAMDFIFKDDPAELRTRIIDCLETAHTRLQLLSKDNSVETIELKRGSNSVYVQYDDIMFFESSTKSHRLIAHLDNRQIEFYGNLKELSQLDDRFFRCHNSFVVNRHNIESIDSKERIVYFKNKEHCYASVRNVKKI

## CC(C)c1ccc(S(=O)(=O)c2nnn3c2nc(O)c2ccccc23)cc1 [Savirin]
AgrA
  modulation of AgrA-regulated toxin gene transcription (hla, psma, pvl): potent modulator
Red blood cell (RBC)
  exotoxin-induced red blood cell (RBC) lysis: inhibited
S. aureus [1]
  resistance development: No resistance was developed
S. aureus [2]
  viability of S. aureus: without affecting viability
MRSA USA300 type strain
  abscess size and dermonecrosis: significant reduction
